{
  "source": "patent US20090170830A1",
  "about": "“Tricyclic Beta-Secretase Inhibitors for the Treatment of Alzheimer's Disease” (priority 2005, published 2009)",
  "biological_target": "T1, beta-secretase enzyme (BACE 1), soluble human protein (Homo sapiens, UniProt P56817)",
  "T1 construct": "soluble (transmembrane domain and cytoplasmic extension excluded) human protein; made in house",
  "T1 sequence (P56817 46-457 limits assumed)": "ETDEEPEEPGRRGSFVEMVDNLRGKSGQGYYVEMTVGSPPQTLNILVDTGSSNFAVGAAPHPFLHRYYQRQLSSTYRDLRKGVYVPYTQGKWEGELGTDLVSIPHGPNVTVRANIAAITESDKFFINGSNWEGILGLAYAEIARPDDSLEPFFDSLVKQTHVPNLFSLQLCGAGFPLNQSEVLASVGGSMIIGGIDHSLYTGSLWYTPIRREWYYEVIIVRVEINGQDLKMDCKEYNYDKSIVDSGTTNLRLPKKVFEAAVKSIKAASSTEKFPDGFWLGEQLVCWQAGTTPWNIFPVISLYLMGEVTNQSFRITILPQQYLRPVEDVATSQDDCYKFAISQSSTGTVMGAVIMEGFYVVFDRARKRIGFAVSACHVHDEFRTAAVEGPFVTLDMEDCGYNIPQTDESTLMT",
  "assay": "ECL assay: homogeneous end point electrochemiluminescence assay with biotinylated BACE substrate",
  "assay_type": "biochemical",
  "conditions": "pH 4.5, rt, 30 min, 10% DMSO, range bounds printed in mixed units (lower nM, upper μM)",
  "protocol": "Enzyme inhibition may be determined as follows.\nECL Assay: A homogeneous end point electrochemiluminescence (ECL) assay is employed using a biotinylated BACE substrate. The Km of the substrate is greater than 100 μM and can not be determined due to the limit of solubility of the substrate. A typical reaction contains approximately 0.1 nM enzyme, 0.25 μM of the substrate, and buffer (50 mM NaOAc, pH 4.5, 0.1 mg/ml BSA, 0.2% CHAPS, 15 mM EDTA and 1 mM deferoxamine) in a total reaction volume of 100 μl. The reaction proceeds for 30 min and is then stopped by the addition of 25 μL of 1 M Tris-HCl, pH 8.0. The resulting enzymatic product is assayed by adding a ruthenylated antibody which specifically recognizes the C-terminal residue of the product. Streptavidin coated magnetic beads are added into the solution and the samples are subjected to M-384 (Igen Inc., Gaithersburg, Md.) analysis. Under these conditions, less than 10% of substrate is processed by BACE 1. The enzyme used in these studies is soluble (transmembrane domain and cytoplasmic extension excluded) human protein produced in a baculovirus expression system. To measure the inhibitory potency for compounds, 12 concentrations of inhibitors are prepared starting from 100 μM with three fold series dilution. Solutions of the inhibitor in DMSO are included in the reaction mixture (final DMSO concentration is 10%). […]",
  "data": [
    {"smiles": "CCc1cn2c3c(cc(-c4nnc([C@](C)(N)Cc5ccccc5)o4)cc13)N(C)S(=O)(=O)CC2", "note": "[Example 1, (2R)-2-[5-(7-ethyl-1-methyl-2,2-dioxido-3,4-dihydro-1H-[1,2,5]thiadiazepino[3,4,5-hi]indol-9-yl)-1,3,4-oxadiazol-2-yl]-1-phenylpropan-2-amine]", "values": [
      {"measurement": "IC50 in inhibiting the beta-secretase enzyme", "value": "1 nM and 100000 nM"}
    ]}
  ]
}
